Earlier results in patent EP1151755B1, “Pharmaceutical compositions comprising cyclosporin as active ingredient” (Panacea Biotec Limited, priority 2000, dated 2001).

System: normal epithelial tissue and Peyer's patch tissue of guinea pigs
Conditions: in vitro; compared to the commercially available drinking solution

factor by which absorption of Cyclosporine was raised: 5-6
Substance: Choleic acid
